Tests used:
[1] = target: T1, Sodium-dependent serotonin transporter (Homo sapiens, UniProt P31645); experiment: Inhibition of serotonin uptake at human SERT expressed in JAR cells at 1 uM; type: cell-based
Target sequence in this assay (P31645 whole entry, looked up): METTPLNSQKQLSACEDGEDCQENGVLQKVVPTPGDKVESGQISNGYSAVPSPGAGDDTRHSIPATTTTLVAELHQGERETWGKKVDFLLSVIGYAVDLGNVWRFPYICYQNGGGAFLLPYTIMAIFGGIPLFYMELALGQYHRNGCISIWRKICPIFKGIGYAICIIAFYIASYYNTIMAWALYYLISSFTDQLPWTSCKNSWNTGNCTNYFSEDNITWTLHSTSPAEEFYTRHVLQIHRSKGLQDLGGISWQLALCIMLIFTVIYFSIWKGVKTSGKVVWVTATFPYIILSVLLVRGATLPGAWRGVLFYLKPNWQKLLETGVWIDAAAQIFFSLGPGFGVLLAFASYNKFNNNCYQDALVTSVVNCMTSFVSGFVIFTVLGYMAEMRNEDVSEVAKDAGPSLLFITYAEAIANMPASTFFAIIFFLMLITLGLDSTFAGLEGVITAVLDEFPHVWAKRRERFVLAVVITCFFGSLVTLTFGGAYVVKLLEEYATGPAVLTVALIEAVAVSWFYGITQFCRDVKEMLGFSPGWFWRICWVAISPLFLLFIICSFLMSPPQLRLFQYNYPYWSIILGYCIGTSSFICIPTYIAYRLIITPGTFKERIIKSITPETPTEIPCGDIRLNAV

[2] = target: Sodium-dependent dopamine transporter (Homo sapiens) (UniProt Q01959); experiment: Displacement of [3H]WIN-35428 from human recombinant DAT expressed in CHO cells at 10 uM; type: cell-based
[3] = target: T2, Sodium-dependent noradrenaline transporter (Homo sapiens, UniProt P23975)
[4] = target: T1, Sodium-dependent serotonin transporter; experiment: Inhibition of serotonin uptake at human SERT expressed in JAR cells at 10 uM; type: cell-based
Target sequence in this assay (P31645 whole entry, looked up): as above

[5] = organism: Homo sapiens; experiment: Ratio of IC50 for human SERT to IC50 for human NET
[6] = target: T1, Sodium-dependent serotonin transporter; type: cell-based, JAR
Target sequence in this assay (P31645 whole entry): as the sequence (P31645 whole entry, looked up) above

[7] = target: T2, Sodium-dependent noradrenaline transporter; experiment: Inhibition of norepinephrine uptake at human NET expressed in MDCK-Net6 cells at 1 uM; type: cell-based

Sequence of Sodium-dependent dopamine transporter (Homo sapiens) (Q01959 whole entry): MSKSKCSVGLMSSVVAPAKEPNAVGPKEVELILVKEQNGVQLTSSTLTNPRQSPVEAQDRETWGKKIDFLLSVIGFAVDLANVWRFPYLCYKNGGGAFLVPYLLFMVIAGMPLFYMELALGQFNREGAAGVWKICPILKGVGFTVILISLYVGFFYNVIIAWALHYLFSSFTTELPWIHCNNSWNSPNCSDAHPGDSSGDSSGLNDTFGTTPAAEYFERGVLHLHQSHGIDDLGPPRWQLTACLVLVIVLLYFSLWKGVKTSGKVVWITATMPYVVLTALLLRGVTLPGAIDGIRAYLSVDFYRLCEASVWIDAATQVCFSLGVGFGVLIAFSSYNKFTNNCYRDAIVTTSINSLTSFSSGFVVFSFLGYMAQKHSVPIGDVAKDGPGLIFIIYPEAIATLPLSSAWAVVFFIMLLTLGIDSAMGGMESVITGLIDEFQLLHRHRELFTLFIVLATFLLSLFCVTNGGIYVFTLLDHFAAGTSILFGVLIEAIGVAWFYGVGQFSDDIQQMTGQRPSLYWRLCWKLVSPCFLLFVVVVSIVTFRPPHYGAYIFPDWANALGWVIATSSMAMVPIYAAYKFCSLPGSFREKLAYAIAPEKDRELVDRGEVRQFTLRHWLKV
T2 sequence (P23975 whole entry): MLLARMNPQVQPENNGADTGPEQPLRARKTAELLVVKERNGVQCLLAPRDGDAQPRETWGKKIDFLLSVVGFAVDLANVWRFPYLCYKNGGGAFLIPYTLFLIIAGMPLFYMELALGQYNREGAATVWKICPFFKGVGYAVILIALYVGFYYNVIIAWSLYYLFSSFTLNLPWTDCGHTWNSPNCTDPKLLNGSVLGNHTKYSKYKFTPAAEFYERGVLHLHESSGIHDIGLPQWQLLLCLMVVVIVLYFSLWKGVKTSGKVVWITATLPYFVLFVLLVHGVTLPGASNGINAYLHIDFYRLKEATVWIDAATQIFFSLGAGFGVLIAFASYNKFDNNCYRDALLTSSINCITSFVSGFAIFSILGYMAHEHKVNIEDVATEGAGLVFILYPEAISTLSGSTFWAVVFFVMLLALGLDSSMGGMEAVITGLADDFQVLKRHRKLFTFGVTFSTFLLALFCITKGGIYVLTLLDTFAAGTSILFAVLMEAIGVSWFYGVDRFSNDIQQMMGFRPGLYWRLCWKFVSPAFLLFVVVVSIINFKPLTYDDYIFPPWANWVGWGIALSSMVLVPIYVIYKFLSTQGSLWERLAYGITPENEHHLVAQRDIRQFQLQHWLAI

Compound	inhibition [1] [%]	inhibition [2] [%]	IC50 [3] [nM]	inhibition [4] [%]	Ratio IC50 [5]	IC50 [6] [nM]	inhibition [7] [%]
CNCC[C@H](c1ccccc1)n1c(=O)n(C)c2ccccc21	10	12	463				
CCn1c(=O)n([C@H](CCNC)c2ccccc2)c2ccccc21		4	44		98	4310	
CNCC[C@H](c1ccccc1)n1c(=O)n(C2CCCC2)c2ccccc21	16	22	201				
CNCC[C@H](c1ccccc1)n1c(=O)n(C2CCCCC2)c2ccccc21	20	24	311				
CNCC[C@H](c1ccccc1)n1c(=O)n(C2CC2)c2ccccc21		7	166		28	4570	
CNCC[C@@H](c1ccccc1)n1c(=O)n(C(C)C)c2ccccc21							21
CNCC[C@@H](c1ccccc1)n1c(=O)n(C2CC2)c2ccccc21							25
CNCC[C@H](c1ccccc1)n1c(=O)sc2ccccc21		36	121		16	1910	
CC(C)n1c(=O)n([C@H](CCN(C)C)c2ccccc2)c2c(F)cccc21							27
CNCCC(c1ccccc1)n1ccc2ccccc21 (centres undefined)					7		
CNCC[C@@H](c1ccccc1)n1c(=O)n(C(C)C)c2cccc(F)c21		31	1050			1410	
CCCn1c(=O)n([C@@H](CCNC)c2ccccc2)c2ccccc21		5	627			166	
CNCC[C@@H](c1ccccc1)n1c(=O)n(-c2ccccc2)c2ccccc21		23	215			273	
CCn1c(=O)n([C@H](CCN)c2ccccc2)c2ccccc21							51
CCNCC[C@H](c1ccccc1)n1c(=O)n(CC)c2ccccc21							27

Next, values leading:

inhibition [1] [%]	inhibition [2] [%]	IC50 [3] [nM]	inhibition [4] [%]	Ratio IC50 [5]	IC50 [6] [nM]	inhibition [7] [%]	Compound
2	11	22	53	450			CNCC[C@H](c1ccccc1)n1c(=O)n(C(C)C)c2ccccc21
		6		80	483		CNCC[C@H](c1ccccc1)n1c(=O)n(-c2ccccc2F)c2cccc(F)c21
	33	9		333	3000		CNCC[C@H](c1ccccc1)n1c(=O)n(-c2ccccc2)c2ccccc21
	5	30		40	1210		CNCC[C@H](c1ccccc1)n1c(=O)n(C(C)C)c2cccc(F)c21
	3	32		97	3100		CCCn1c(=O)n([C@H](CCNC)c2ccccc2)c2ccccc21
28	14	19					CCn1c(=O)n([C@H](CCNC)c2cccc(F)c2)c2c(F)cccc21
